Tests used:
[1] = tested on: nuclear import of NFAT in C1.7W2 T cells; test: NFAT1 immune staining assay, nuclear import in C1.7W2 T cells; assay type: cell-based, murine; details: INCA6 20 μM or 40 μM; CsA/FK506 1 μM/100 nM; 1 μM ionomycin 15 min
Method: For an immune staining assay, C1.7W2 T cells growing on coverslips in Dulbecco's modified Eagle medium, supplemented with 10% fetal calf serum, 10 mM HEPES, and 2 mM glutamine, at 37 C. were pretreated with medium alone, with INCA6 (20 μM or 40 μM), or with CsA/FK506 (1 μM/100 nM) for 10 min, then stimulated for an additional 15 min with 1 μM ionomycin, in medium alone or in the continued presence of inhibitor as appropriate. Medium was removed, and the cells were fixed, permeabilized, and stained using the anti-67.1 antiserum against NFAT1 (A Ho et al (1994) J Biol Chem 269, 28181-28186) and a fluorescent second antibody.

[2] = tested on: NFAT dephosphorylation by calcineurin in C1.7W2 T cells; test: ionomycin-induced NFAT dephosphorylation in C1.7W2 T cells, Western blot; assay type: cell-based, murine; details: 1 μM ionomycin 15 min
Method: For the dephosphorylation assay, C1.7W2 T cells were pretreated in Dulbecco's modified Eagle medium, supplemented with 10% fetal calf serum, 10 mM HEPES, and 2 mM glutamine, at 37 C. with INCA6 (5-40 μM) for 10 min, then stimulated for an additional 15 min with 1 μM ionomycin in the continued presence of inhibitor. Control incubations omitted INCA6, ionomycin, or both. DMSO was present at equal concentrations in all incubations. Cells were collected by centrifugation and lysed in Laemmli sample buffer. Samples were analyzed by SDS-polyacrylamide gel electrophoresis according to Laemmli (U K Laemmli (1970) Nature 227, 680-685) using a 6% separating gel, transferred to nitrocellulose membrane, and probed with an antiserum to NFAT1.

[3] = tested on: PMA-MAP kinase signalling pathway in C1.7W2 T cells; test: phosphorylation of p44/p42 MAP kinase in PMA-stimulated C1.7W2 T cells; assay type: cell-based, murine; details: INCA6 pretreatment; 20 nM PMA 15 min
Method: Dephosphorylation of NFAT is evident in the shift of the stained NFAT band the sample from cells that were stimulated with ionomycin in the absence of inhibitor (FIG. 12A, lane 2). […] Activation of the latter pathway was monitored by examining phosphorylation of p44/p42 MAP kinase. For this assay the cells were pretreated and incubated as for the NFAT dephosphorylation assay, except that stimulation was for 15 min with 20 nM PMA. Cells were collected by centrifugation, lysed in Laemmli sample buffer, and analyzed by Western blotting with an anti-phospho-p44/p42 MAP kinase antibody (Cell Signaling Technology).

[4] = target: T1, recombinant human calcineurin catalytic domain, calcineurin(2-347) (Homo sapiens, UniProt Q08209, L343A/M347D/Y341S); test: fluorescence polarization competition assay, displacement of OG-VIVIT from calcineurin; assay type: binding
T1 construct: GST (N, cleaved yes); made in house; host or cells: E. coli strain DH5α
Method: Samples were analyzed as described in the preceding paragraph, and the resulting polarization data were plotted against the concentration of unlabelled VIVIT peptide, as shown in FIG. 8B.
The library stocks were dissolved at a nominal concentration of 10 mM in DMSO, and formatted for convenient robotic transfer on 384-well plates at the Institute of Chemistry and Cell Biology, Harvard Medical School. To initiate the competition assay, 40 nl volumes were pin-transferred from each well of a library stock plate to the corresponding wells of an assay plate, utilizing a robotic device. After a minimum 10 min incubation at room temperature to allow the binding to reach equilibrium, fluorescence polarization data were collected employing an Analyst plate reader (Molecular Devices).
Stocks of candidate inhibitor compounds and their structural analogues were purchased from ChemBridge or Asinex. The structure and purity of individual compounds were verified by ^1H NMR, mass spectrometry, or thin-layer chromatography. […] INCA1, INCA2, and INCA6 can be represented generally as follows: […]

[5] = tested on: cytokine mRNAs in C1.7W2 T cells; test: RNase protection assay of cytokine mRNAs in C1.7W2 T cells stimulated with PMA and ionomycin; assay type: cell-based, murine
Method: The effects of INCA6 on transcription were examined in the case of several cytokine mRNAs that are known targets of calcineurin-NFAT signalling. C1.7W2 T cells were preincubated for 10 min. in medium alone, in medium containing INCA6, or in medium containing CsA and FK506, then stimulated under conditions that normally initiate signalling through the calcium-calmodulin-calcineurin-NFAT pathway. Cells in control samples that had not been pretreated with inhibitor were left unstimulated, or were stimulated for 45 min with 20 nM PMA alone, or with 20 nM PMA and 1 μM ionomycin. Cells in parallel samples that had been pretreated for 10 min with inhibitor were then further incubated for 45 min without stimulation or with PMA and ionomycin, in the continued presence of inhibitor. At the end of the incubation, cells were harvested and total cellular RNA was extracted using Ultraspec RNA-binding resin (Biotecx Laboratories). Levels of cytokine mRNAs were analyzed by RNase protection assays performed with RiboQuant multiprobe kits (Pharmingen) following the instructions of the manufacturer. Briefly, for each sample 10 μg of target RNA was hybridized overnight to a ^32P-labelled RNA probe that had been synthesized in vitro from a template set representing multiple murine cytokine mRNAs, and then the unhybridized probe and other single-stranded RNAs were digested with RNases. The protected RNAs were purified, and probes for the individual cytokine mRNAs were resolved on a denaturing 6% polyacrylamide gel. Transcript levels were quantified by autoradiography and by use of a phosphorimager (Molecular Dynamics). Probes for the individual cytokine transcripts were identified by the length of the respective protected fragments. The results are presented in FIGS. 14A to 14C, which are pictures of RNA gel autoradiograms. Data were corrected for minor variations in RNA loading by normalizing the data for each sample to the intensity of the signal for the housekeeping transcripts L32 and GAPDH (see lower panels of FIGS. 14A, 14B, and 14C).

calcineurin = calcineurin (Homo sapiens, UniProt Q08209, L343A/M347D/Y341S); test: 1H NMR titration spectroscopy binding experiments; details: 10 μM compound, 20 μM calcineurin, 25° C., buffered D2O
Method: T2-filtered ^1H NMR spectra were obtained on a Bruker Avance 600 instrument with CryoPhobe using low-power presaturation of residual water. Preacquisition delays included up to five spin echos to suppress fast-relaxing broad protein resonances and were times to yield in-phase signals for J-coupled spins. Chemical shifts were referenced to internal standard 5 μM 2,2-dimethylsilapentane-5-sulfonic acid (DSS).

T1 sequence (Q08209 2-347 Y341S/L343A/M347D): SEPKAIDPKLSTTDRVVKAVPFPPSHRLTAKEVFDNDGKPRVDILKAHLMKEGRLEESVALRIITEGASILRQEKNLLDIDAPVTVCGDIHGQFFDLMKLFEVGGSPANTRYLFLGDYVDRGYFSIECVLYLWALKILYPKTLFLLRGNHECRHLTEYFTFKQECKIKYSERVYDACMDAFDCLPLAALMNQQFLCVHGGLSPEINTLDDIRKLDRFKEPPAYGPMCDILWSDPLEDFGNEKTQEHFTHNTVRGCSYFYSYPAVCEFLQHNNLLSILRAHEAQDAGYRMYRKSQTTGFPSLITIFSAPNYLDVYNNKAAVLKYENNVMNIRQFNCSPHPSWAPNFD
Chain of calcineurin (Q08209 2-347 Y341S/L343A/M347D limits assumed): as the sequence (Q08209 2-347 Y341S/L343A/M347D) above

O=C1C=CC(=O)C2=C1C1c3ccccc3C2c2ccccc21 [INCA6]
localization of NFAT immune staining in ionomycin-stimulated cells [1]: localized to the cytoplasm
blockade of NFAT dephosphorylation in cells ([2]; 10 μM INCA6): partial
blockade of NFAT dephosphorylation in cells ([2]; 20 μM INCA6): nearly complete
blockade of NFAT dephosphorylation in cells ([2]; 40 μM INCA6): total
activation of the PMA-MAP kinase signalling pathway (phosphorylation of p44/p42 MAP kinase) [3]: not blocked
Ki [4]: 0.8 to 5 µM
displacement of OG-VIVIT from calcineurin ([4]; at high concentrations, 1 μM calcineurin, 60 nM OG-VIVIT): complete
IC50 ([4]; calcineurin-VIVIT peptide interaction, read-out: Estimated IC50): 17 µM
induction of GM-CSF mRNA ([5]; 20 μM INCA6, 20 nM PMA and 1 μM ionomycin 45 min): partially prevented
induction of lymphotactin (Ltn), MIP1β, and MIP-1α mRNAs ([5]; 20 μM INCA6, PMA and ionomycin): partially blocked
induction of TNFα mRNA ([5]; 20 μM or 40 μM INCA6, CsA/FK506, PMA and ionomycin): inhibited
induction of GM-CSF mRNA ([5]; 40 μM INCA6, CsA/FK506 1 μM/100 nM, PMA and ionomycin 45 min): fully blocked
induction of lymphotactin (Ltn), MIP1β, and MIP-1α mRNAs ([5]; 40 μM INCA6, CsA/FK506, PMA and ionomycin): fully blocked
induction of IFNγ mRNA ([5]; INCA6, CsA/FK506, PMA and ionomycin): inhibited
levels of TNFβ, RANTES, and IP-10 mRNAs ([5]; not downstream targets of NFAT): unaffected
basal level of GM-CSF mRNA ([5]; unstimulated cells): not affected
binding to calcineurin in the absence of VIVIT peptide (calcineurin): direct molecular interaction

— patent US20040002117A1 (priority 1998, published 2004)
